Source: article PMC10547636 (Pharmaceutical Research, 2023)

Experiments:
[1] = Population pharmacokinetic analysis (NONMEM) of intravenous PCM and its metabolites in plasma and urine of preterm neonates born below 32 weeks of gestation; assay type: in vivo; details: for fVG / fVS / fVO, distribution volume of metabolite as fraction of VP of PCM: V = fV×VP
Procedure: Two datasets were pooled in this study. […] The second dataset consisted of data from 83 neonates born before 32 weeks of gestation who were included in the Drug dosage Improvement in Neonates (DINO) study between September 2014 and July 2017. This study was conducted in four Dutch Neonatal Intensive Care Units. The Erasmus Medical Center ethics review board approved the protocols, and written informed consent from parents/legal guardians was obtained before study initiation (NL47409.078.14, MEC-2014-067, NCT02421068). […] The actual urine collection interval and volume varied and were recorded. Plasma samples of all patients were available. […] In dataset 2, the dosing schedule was based on current weight according to Wang et al. […] The dosing regimen could be adapted in individual patients by the treating physician. […] No urine samples were collected. […] For those BLOQ samples, the values obtained with the assay were still reported and these were used in the PopPK analysis. […] Processing and visualization of output from NONMEM were performed in R 4.2.3 (CRAN.R-project.org). Parameters were estimated using the first-order conditional estimation with interaction (FOCE + I) method. […] Parameter precision was obtained with the R covariance matrix. […] The stochastic model included interindividual variability (IIV) and residual variability (RUV). […] SD assumes that the standard deviation of the residual error is the sum of the additive and proportional components. Separate SD1 and SD2 values were tested for each dataset, compound and for plasma and urine samples. […] In those cases, linear interpolation was used for current weight between two existing current weight measurements of the particular patient. For implementation of continuous covariates (birthweight, current weight, GA, PNA, PMA, birthweight Z-score), linear, power, exponential, and sigmoidal functions were tested. For categorical covariates (gender, SGA), additive shift models were tested. Covariates were evaluated based on OFV by a stepwise forward inclusion (ΔOFV > 6.64, P < 0.01) and backward deletion (ΔOFV < 10.83, P > 0.001) process. Besides this, goodness of fit plots split for datasets and covariate quartiles, plots of individual eta-values versus covariate values (ETA plots), and reduction in inter-individual variability on the parameter of interest, were evaluated. A bootstrap analysis (n = 500) stratified on dataset, was performed to assess the robustness of the final model and parameter estimates. […] The NPDEs of urine samples were plotted together due to a limited number of samples per compound. […] This was done to illustrate the concentration-time profiles of each compound under the current practice of linear bodyweight-based dosing. […] In these simulations, the growth curves published by Anchieta et al.

[2] = adults; ref [3], [4]; cited from earlier work

| SMILES | fVG / fVS / fVO, distribution volume of metabolite as fraction of VP of PCM ([1]; final model estimate (RSE %)) | TVCLrG / TVCLrS / TVCLrO, typical renal clearance of metabolite, bootstrap ([1]; birthweight 985 g, PNA 5 days, bootstrap estimate (95% CI)) | TVCLrG / TVCLrS / TVCLrO, typical renal clearance of metabolite ([1]; birthweight 985 g, PNA 5 days, final model estimate (RSE %)) | fVG / fVS / fVO, distribution volume of metabolite as fraction of VP of PCM, bootstrap ([1]; bootstrap estimate (95% CI)) | θPNA50, PNA at which RFS reaches half of RFS0, bootstrap ([1]; PNA in days, bootstrap estimate (95% CI)) | θPNA50, PNA at which RFS reaches half of RFS0 ([1]; PNA in days, final model estimate (RSE %)) | non-linear formation of CYP2E1 pathway metabolites (PCM-cysteine and PCM-mercapturate) ([1]; among the dosages given in this study) | predicted difference in glucuronidation of PCM with PNA ([1]; between day 1 and day 30) | θBWb, power exponent of birthweight (BWb/985) on RFG, bootstrap ([1]; bootstrap estimate (95% CI)) | θBWc, power exponent of current weight (BWc/1012) on VP, bootstrap ([1]; bootstrap estimate (95% CI)) | VPP, distribution volume of the peripheral compartment, bootstrap ([1]; bootstrap estimate (95% CI), in L) | TVVP, typical distribution volume of the central compartment (VP), bootstrap ([1]; current weight 1012 g, bootstrap estimate (95% CI)) | TVVP, typical distribution volume of the central compartment (VP) ([1]; current weight 1012 g, final model estimate (RSE %)) | θBWb, power exponent of birthweight (BWb/985) on RFG ([1]; final model estimate (RSE %)) | θBWc, power exponent of current weight (BWc/1012) on VP ([1]; final model estimate (RSE %)) | VPP, distribution volume of the peripheral compartment ([1]; final model estimate (RSE %), in L) | contribution of glucuronidation to elimination in neonates ([1]; preterm neonates of this study) | fraction of PCM metabolized into sulphate conjugate [2] [%] | fraction of administered PCM excreted unchanged in the urine [2] | fraction of administered dose metabolized via the oxidative route (NAPQI) [2] |
| --- | --- | --- | --- | --- | --- | --- | --- | --- | --- | --- | --- | --- | --- | --- | --- | --- | --- | --- | --- | --- |
| CC(=O)Nc1ccc(O[C@@H]2O[C@H](C(=O)O)[C@@H](O)[C@H](O)[C@H]2O)cc1 [PCM-glucuronide, paracetamol-glucuronide] | 0.6 (9) | 0.0428 (0.0383–0.0482) L/h | 0.0425 (5) L/h | 0.6 (0.5–0.8) | – | – | – | – | – | – | – | – | – | – | – | – | – | – | – | – |
| CC(=O)Nc1ccc(O)cc1 [PCM, paracetamol] | – | – | – | – | 8.71 (4.55–15.6) | 9.18 (23) | could not identify this non-linearity | sixfold | 0.487 (0.137–0.917) | 0.844 (0.659–1.05) | 0.247 (0.167–0.348) | 0.955 (0.775–1.030) L | 0.955 (3) L | 0.479 (45) | 0.836 (11) | 0.244 (12) | 5–15% | ~30 | 2–5% | 8–10% |
| CC(=O)Nc1ccc(OS(=O)(=O)O)cc1 [PCM-sulfate, paracetamol-sulfate] | 0.326 (4) | – | – | 0.330 (0.300–0.417) | – | – | – | – | – | – | – | – | – | – | – | – | – | – | – | – |
